Measured values: paper PMC7956481, “Carrier-Free Immobilization of α-Galactosidase as Nano-Biocatalysts for Synthesizing Prebiotic α-Galacto-Oligosaccharides” (Molecules, 2021)

Tested on: T1, α-galactosidase
T1 construct: gene aglA; native extracellular enzyme; filtered culture supernatant used as crude enzyme, not purified
Assay: p-nitrophenol release at […] nm, Michaelis-Menten fit (GraphPad Prism […])
Assay type: biochemical, Aspergillus niger
Settings: free enzyme (crude culture supernatant); 50 mM acetate buffer pH 5.5; 37 °C; 10 min; 0.3 to 2.2 mM substrate

Km: 300 ± 20 µM
SMILES: O=[N+]([O-])c1ccc(O[C@H]2O[C@H](CO)[C@H](O)[C@H](O)[C@H]2O)cc1 [p-Nitrophenyl α-D-galactopyranoside]
